Measurements as given in patent publication US20100190755A1, “TETRACYCLINE COMPOUNDS FOR THE TREATMENT OF RHEUMATOID ARTHRITIS AND RELATED METHODS OF TREATMENT” (priority 2008, published 2010).
Converted amounts (≈) assume the structure as drawn.

Key:
[1] = test system: E. coli ATCC25922 (tetracycline sensitive); experiment: E. coli MIC, broth micro-dilution per CLSI guidelines (Table 3); format: cell-based; conditions: for MIC: Escherichia coli, E. coli ATCC25922, cation-adjusted Mueller Hinton broth
[2] = test system: Protein synthesis (E. coli S30 Extract System); experiment: Protein synthesis inhibition, in vitro transcription/translation assay (E. coli S30 Extract System for Circular DNA); format: biochemical
[3] = Pharmacokinetics in rats after i.v. and oral dosing; format: in vivo; conditions: rat; for bioavailability: male, CD/IGS, after oral dosing of 5 mg/kg, read-out: PK Parameters (Rat) % F, fraction of absorption; for bioavailability / half-life: plasma; for half-life: male CD/IGS rats, 1 mg/kg i.v. or 5 mg/kg oral, read-out: PK Parameters (Rat) T1/2 (converted)
Protocol: Pre-cannulated (jugular vein and carotid artery for i.v. group and carotid artery for oral group) male CD/IGS rats (approximately 250 g) were used. Rats were fasted overnight prior to dosing with access to food restored 2 hours after dosing. Rats were administered with approximately 0.25 mL compound (1 mg/kg dose) for i.v. route (via jugular vein over 20 seconds) or 0.5 mL solution (5 mg/kg dose) orally. Blood (300 μL) was collected in tubes with EDTA anticoagulant at various time points, centrifuged and plasma collected and stored frozen at −20° C. Animals were euthanized by CO2 following the final blood collection. Plasma was extracted (0.1% trifluoroacetic acid in 67% acetonitrile/33% water) and levels of compound quantified by HPLC/MS against a standard curve.

[4] = test system: collagen-induced arthritis (CIA) in male DBA/1 mice; experiment: Murine collagen-induced arthritis (CIA) model, Example 2; format: in vivo, mouse; conditions: for % Inhibition (Change in Paw Thickness) AVG / % Inhibition (Clinical Score) AVG / Change in Paw Thickness (mm) Mean: 25 mg/kg/day i.p.; for % Inhibition (Change in Paw Thickness) AVG / % Inhibition (Clinical Score) AVG: dosed after disease onset; for EC50 in inflammation suppression in CIA mice: i.p. daily; for Effects on reduction of paw swelling and clinical score compared to either minocycline or methotrexate / joint inflammation when administered after disease onset: murine CIA model
Protocol: Four non-antibacterial analogues of minocycline (J, W, AF and AT) were synthesized and tested in the murine model of the disease, collagen-induced arthritis (CIA) (See supra). Male DBA/1 mice were immunized intradermally with 200 μg of bovine type II collagen and boosted with collagen three weeks later. Minocycline and four non-antibacterial minocycline derivatives were administered i.p. beginning after disease onset. Paw thickness was measured and animals were scored daily.
(§1) • 1. Male DBA/1 mice were immunized i.d. with an emulsion of 200 μg bovine type II collagen in Complete Freund's Adjuvant. • 2. On day 21, mice received i.d. boost of 100 μg collagen in Incomplete Freund's Adjuvant • 3. Compounds were administered i.p. daily for 7 days starting from disease onset (day 3-4 after boost). • 4. Foot swelling was measured by an engineering micrometer and disease severity was scored accordingly (1, erythema and mild swelling confined to the tarsal or ankle joint; 2, erythema and mild swelling extending from the ankle to the mid-foot; 3, erythema and moderate swelling extending from the ankle to the metatarsal joints; 4, erythema and severe swelling encompassing the ankle, foot, and digits). • 5. Change (Δ) of paw thickness=sum of paw thickness from 4 paws of a mouse (experimental)−sum of baseline paw thickness from 4 paws of the same mouse. • 6. % inhibition=cumulative A paw thickness (disease group−compound-treated group)/cumulative A paw thickness (disease group)

MMP-9 = experiment: Paw extract biomarker ELISA, CIA mice: MMP-9; format: in vivo, mouse; conditions: paw extracts from CIA mice
Protocol: as §1
(§2) • 1. Paws were collected from mice after 5-7 days of dosing and dissected free of skin. • 2. The paws were then homogenized in ice-cold PBS (2 ml/4 paws/mouse) containing 1× protease inhibitor using a Polytron homogenizer. • 3. Debris and particles were removed from the homogenized samples by centrifugation. • 4. Liquid layers were collected for MMP-9, IL-1, IL-6, RANKL, MCP-1, and TNFα analysis using ELISA kits from R & D System.

IL-1 = experiment: Paw extract biomarker ELISA, CIA mice: IL-1; format: in vivo, mouse; conditions: paw extracts from CIA mice
Protocol: as §1, §2

IL-6 = experiment: Paw extract biomarker ELISA, CIA mice: IL-6; format: in vivo, mouse; conditions: paw extracts from CIA mice
Protocol: as §1, §2

MCP-1 = experiment: Paw extract biomarker ELISA, CIA mice: MCP-1; format: in vivo, mouse; conditions: paw extracts from CIA mice
Protocol: as §1, §2

RANKL = experiment: Paw extract biomarker ELISA, CIA mice: RANKL; format: in vivo, mouse; conditions: paw extracts from CIA mice
Protocol: as §1, §2

[5] = test system: cytokines (IL-1, IL-6, RANKL and MCP-1) and a matrix metalloproteinase (MMP-9); experiment: Paw extract biomarker ELISA, CIA mice: whole panel (statements in words); format: in vivo, mouse
Protocol: as §1, §2

S. aureus RN450 = experiment: Antibacterial activity MIC, Gram+ (Table 9); format: cell-based; conditions: Staphylococcus aureus, CAMHB, 35° C., approximately 18 hr
Outline: (§3)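 MIC taken as lowest compound level preventing growth after about 18 h at 35 °C (ambient air), read by microplate reader with visual check. Fresh log-phase cultures were inoculated to about 5×10^5 CFU/ml final into CAMHB dilutions spanning 200 to 0.098 μg/ml, starting from a DMSO stock.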

E. coli 25922 = experiment: Antibacterial activity MIC, Gram- (Table 9); format: cell-based; conditions: Escherichia coli, CAMHB, 35° C., approximately 18 hr
Outline: as §3

[6] = test system: collagen-induced arthritis (CIA) in male DBA/1 mice; experiment: CIA model, Example 3 (cumulative scores vs untreated controls); format: in vivo; conditions: Mus musculus
Outline: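 Immunised intradermally with bovine type II collagen in CFA and boosted at day 21 in IFA. After onset, tetracycline derivatives given daily i.p. or orally for 8 to 15 days. Daily visual inflammation scores (0–4 scale) and micrometer paw thickness summed into cumulative scores.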

Row | SMILES | anti-bacterial activity compared to minocycline [1] | MIC [1] | IC50 [2] | bioavailability [3] | bio-available after oral dosing in rats [3] | half-life [3] | % Inhibition (Change in Paw Thickness) AVG [4] | % Inhibition (Clinical Score) AVG [4] | EC50 in inflammation suppression in CIA mice [4] | Change in Paw Thickness (mm) Mean ([4]; day 1 of dosing) | Change in Paw Thickness (mm) Mean ([4]; day 2 of dosing) | Change in Paw Thickness (mm) Mean ([4]; day 3 of dosing) | Change in Paw Thickness (mm) Mean ([4]; day 4 of dosing) | Change in Paw Thickness (mm) Mean ([4]; day 5 of dosing) | Change in Paw Thickness (mm) Mean ([4]; day 6 of dosing) | Change in Paw Thickness (mm) Mean ([4]; day 7 of dosing) | Change in Paw Thickness (mm) Mean ([4]; day 8 of dosing) | Effects on reduction of paw swelling and clinical score compared to either minocycline or methotrexate [4] | joint inflammation when administered after disease onset [4] | Percent level of Biomarker Tissue [c] Compared to Untreated Control, MMP-9 AVG (MMP-9) | other results
1 | CCc1cc(N(C)C)c2c(c1O)C(=O)C1=C(O)[C@]3(O)C(=O)C(C(N)=O)=C(O)C[C@@H]3C[C@@H]1C2 [Compound AF] | no anti-bacterial activity | > 64 µg/mL | > 100 µM | 77% | bio-available | 3.1 h | 62% | 42% | 12 mg/kg/day i.p. | 0.55 mm | 0.39 mm | 0.61 mm | 0.49 mm | 0.46 mm | 0.38 mm | 0.42 mm | 0.54 mm | greater | inhibited joint inflammation | 113% | Percent level of Biomarker Tissue [c] Compared to Untreated Control, IL-1 AVG (IL-1): 55%; Percent level of Biomarker Tissue [c] Compared to Untreated Control, IL-6 AVG (IL-6): 35%; Percent level of Biomarker Tissue [c] Compared to Untreated Control, MCP-1 AVG (MCP-1): 43%; Percent level of Biomarker Tissue [c] Compared to Untreated Control, RANKL AVG (RANKL): 38%; inhibition of inflammatory/osteoclastic cytokines (MMP-9, IL-1, IL-6, MCP-1, RANKL) in vivo [5]: better than minocycline; MIC (S. aureus RN450): 1 µg/mL (≈ 2.26 µM); MIC (E. coli 25922): > 64 µg/mL; inhibition in vivo at 6 mg/kg ([6]; Dose 6 mg/kg): 28%; inhibition in vivo at 12 mg/kg [6]: 49%; inhibition in vivo at 35 mg/kg ([6]; Dose 35 mg/kg): 62%
2 | CC(C)c1cc(N(C)C)c2c(c1O)C(=O)C1=C(O)[C@]3(O)C(=O)C(C(N)=O)=C(O)[C@@H](N(C)C)[C@@H]3C[C@@H]1C2 [Compound J] | no anti-bacterial activity | > 64 µg/mL | > 100 µM | 65% | bio-available | 2.5 h | 71% | 45% | 14 mg/kg/day i.p. | 0.47 mm | 0.39 mm | 0.33 mm | 0.48 mm | 0.36 mm | 0.37 mm | 0.50 mm | 0.65 mm | greater | inhibited joint inflammation | 68% | Percent level of Biomarker Tissue [c] Compared to Untreated Control, IL-1 AVG (IL-1): 52%; Percent level of Biomarker Tissue [c] Compared to Untreated Control, IL-6 AVG (IL-6): 68%; Percent level of Biomarker Tissue [c] Compared to Untreated Control, MCP-1 AVG (MCP-1): 60%; Percent level of Biomarker Tissue [c] Compared to Untreated Control, RANKL AVG (RANKL): 32%; inhibition of inflammatory/osteoclastic cytokines (MMP-9, IL-1, IL-6, MCP-1, RANKL) in vivo [5]: better than minocycline; MIC (S. aureus RN450): 2 µg/mL (≈ 4 µM); MIC (E. coli 25922): > 64 µg/mL; inhibition in vivo at 12 mg/kg [6]: 34%; inhibition in vivo at 25 mg/kg ([6]; Dose 25 mg/kg): 71%
